Laboratory results as given in BindingDB's records for doi:10.1021/jm021012t (F. Hoffmann-La Roche, 2003).

Experiments:
[1] = biological target: T1, P-glycoprotein (ABCB1, MDR1) (Homo sapiens, UniProt P08183); experiment: Inhibition of P-glycoprotein, human L-MDR1 expressed in LLC-PK1 epithelial cells using calcein-AM polarisation assay; settings: LLC-PK1 epithelial cells expressing human MDR1 (L-MDR1), probe calcein-AM
[2] = biological target: T1, P-glycoprotein (ABCB1, MDR1); experiment: TP_TRANSPORTER: inhibition of Calcein-AM efflux in MDR1-expressing LLC-PK1 cells; settings: probe calcein-AM

T1 sequence (P08183 whole entry): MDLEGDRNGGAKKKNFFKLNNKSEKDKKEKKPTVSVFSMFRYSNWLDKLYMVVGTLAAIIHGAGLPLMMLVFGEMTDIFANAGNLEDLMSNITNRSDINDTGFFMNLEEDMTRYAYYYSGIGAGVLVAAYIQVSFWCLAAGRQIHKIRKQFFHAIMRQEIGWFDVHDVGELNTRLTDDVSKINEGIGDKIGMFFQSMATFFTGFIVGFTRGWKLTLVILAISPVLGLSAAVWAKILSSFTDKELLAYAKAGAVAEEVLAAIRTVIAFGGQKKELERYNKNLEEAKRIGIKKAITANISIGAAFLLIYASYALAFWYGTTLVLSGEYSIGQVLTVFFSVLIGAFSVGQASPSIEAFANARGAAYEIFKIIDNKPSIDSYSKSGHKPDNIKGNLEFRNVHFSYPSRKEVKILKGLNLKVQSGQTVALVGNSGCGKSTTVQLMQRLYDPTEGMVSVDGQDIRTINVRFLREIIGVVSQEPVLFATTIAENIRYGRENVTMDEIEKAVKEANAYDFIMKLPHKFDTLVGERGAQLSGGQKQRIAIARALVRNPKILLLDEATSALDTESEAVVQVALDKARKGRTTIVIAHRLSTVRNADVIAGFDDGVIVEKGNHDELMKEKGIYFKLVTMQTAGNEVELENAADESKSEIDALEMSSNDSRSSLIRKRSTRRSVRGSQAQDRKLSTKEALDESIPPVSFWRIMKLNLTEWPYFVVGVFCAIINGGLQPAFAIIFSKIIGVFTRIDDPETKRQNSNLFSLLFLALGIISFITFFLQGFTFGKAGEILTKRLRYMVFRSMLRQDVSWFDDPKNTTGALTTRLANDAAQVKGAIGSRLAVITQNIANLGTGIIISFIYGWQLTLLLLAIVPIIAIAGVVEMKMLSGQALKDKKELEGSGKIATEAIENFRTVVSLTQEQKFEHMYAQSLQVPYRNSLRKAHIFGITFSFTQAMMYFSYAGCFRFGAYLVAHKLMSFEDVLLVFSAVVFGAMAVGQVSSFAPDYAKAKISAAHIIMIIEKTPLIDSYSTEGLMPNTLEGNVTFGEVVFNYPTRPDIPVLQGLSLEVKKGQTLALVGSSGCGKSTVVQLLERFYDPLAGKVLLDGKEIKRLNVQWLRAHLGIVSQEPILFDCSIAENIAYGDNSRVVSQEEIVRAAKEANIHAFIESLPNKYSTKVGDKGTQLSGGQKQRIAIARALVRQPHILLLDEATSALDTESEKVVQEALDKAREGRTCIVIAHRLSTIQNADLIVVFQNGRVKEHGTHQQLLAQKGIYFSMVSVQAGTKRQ

IC50 [1]: 100 nM | IC50 [2]: 100 nM
Compound: CC[C@H](C)[C@H]1O[C@]2(CC[C@@H]1C)C[C@@H]1C[C@@H](C/C=C(\C)[C@@H](O[C@H]3C[C@H](OC)[C@@H](O[C@H]4C[C@H](OC)[C@@H](O)[C@H](C)O4)[C@H](C)O3)[C@@H](C)/C=C/C=C3\CO[C@@H]4[C@H](O)C(C)=C[C@@H](C(=O)O1)[C@]34O)O2 [ABAMECTIN]
